Measured values published in patent US20250228826A1, “COMBINATION OF A GREMLIN-1 ANTAGONIST WITH AN INHIBITOR OF RAS-RAF-MEK-ERK SIGNALLING” (UCB BIOPHARMA SRL, priority 2022, published 2025).
Several values for one entry are separate records, joined by “and”; a condition that tells them apart may be missing. Equal entries are not always repeated.

How the values were obtained:
[1] = test system: pancreatic tumours in KPC mice; test: Survival of KPC mice from start of treatment, Kaplan-Meier and Log-Rank (Examples 3 and 4); type: in vivo; details: for Median survival: KPC mice survival cohort
Excerpt: (§1) LSL-Kras^G12D/+; Trp53^R172H/+; Pdx1-Cre (KPC) mice have been described previously (Hingorani et al., 2005). Mice were generated by crossing mice bearing Pdx1-Cre, and conditional LSL-KrasG12D or LSL-Trp53R172H alleles (strains 01XJ6 and 01XL9, Mouse Models of Human Cancer Consortium [MMHCC], NCI-Frederick, Frederick, MD, USA). Mice on a mixed background were bred in-house at the CRUK Beatson Institute and maintained in conventional caging with environmental enrichment, access to standard chow and water ad libitum. Genotyping was performed by Transnetyx (Cordoba, TN, USA). Mice of both sexes were recruited onto study. All animal experiments were performed under a UK Home Office licence and approved by the University of Glasgow Animal Welfare and Ethical Review Board.
Mice were monitored 3 times weekly until a diagnosis of pancreatic cancer was made by abdominal palpation and confirmed by ultrasound imaging. […] There were >12 mice per group. Mice were monitored daily and sacrificed either at 7 days post-initiation of treatment (4 mice per group) or when reaching ethical endpoint (>8 mice per group, symptoms include abdominal distension, cachexia, intermittent hunching or reduced mobility, piloerection, mild diarrhoea, anaemia). Statistical assessment of survival of these mice from start of treatment was carried out by Kaplan-Meier and Log-Rank analysis.
Mice were monitored at least weekly by palpation until pancreatic tumours were detectable.
For the survival cohort (Table 4), high resolution ultrasound imaging was performed weekly over the treatment period in order to monitor the tumour burden of each individual mouse on treatment. Mice remained on study and were closely monitored until ethical endpoint was reached, at which time they were sacrificed as per institutional guidelines.

[2] = test system: pancreatic tumours in KPC mice; test: Tumour volume by 3D ultrasound imaging in KPC mice (Example 5); type: in vivo, mouse
Description: The VisualSonics Vevo 3100 preclinical imaging platform (FUJIFILM VisualSonics, Toronto, Canada) was used for high-resolution ultrasound imaging to confirm tumour diagnosis and for weekly monitoring of tumour progression. Anaesthesia was induced and maintained with a mixture of isoflurane and medical air. Tumour volume was calculated weekly for each mouse and plotted longitudinally.
(§2) Mice were monitored 3 times weekly until a diagnosis of pancreatic cancer was made by abdominal palpation and confirmed by ultrasound imaging. […] Mice were monitored daily and sacrificed when reaching ethical endpoint.
(§3) Statistical assessment of survival of these mice from start of treatment was carried out using a Cox's proportional hazards model to calculate hazard ratios. Tumour volume data at day 7 data were analysed using a linear model suitable for a randomised design, fitting Treatment Tumour volume at day 0 was used as a covariate to increase the precision of the estimates.
The volume of the pancreatic tumours in control or treated KPC mice was measured over time using 3D tumour imaging by ultrasound.

[3] = test system: pancreatic tumours in KPC mice; test: Survival of KPC mice, Cox's proportional hazards model (Example 5); type: in vivo, mouse; details: for Median survival: KPC mice, Example 5 cohort (Table 8), Ab7326 mIgG1 30 mg/kg s.c. twice weekly, Selumetinib 25 mg/kg p.o. b.i.d., UCB-554 10 mg/kg p.o. every 2 days; for Hazard ratio Ab7326/treatment: comparator Ab7326 alone
Excerpt: as §1, §2, §3

SMILES | Median survival ([1]; Example 4, same doses as Table 4) | Median survival ([1]; Table 4 (text b395 gives days), Ab7326 mIgG1 30 mg/kg s.c. twice weekly, Selumetinib 25 mg/kg p.o. b.i.d., Selumetinib arm historical data) | Days on Rx ([1]; survival of individual KPC mice on treatment, one line per mouse (Table 6)) | tumour volume at day 7 after start of treatment compared to vehicle or Ab7326 treatment alone [2] | Median survival [3] | Hazard ratio Vehicle/treatment ([3]; Table 10, combined dataset Table 4 + Table 8, Cox model) | Hazard ratio Ab7326/treatment ([3]; Table 10, combined dataset Table 4 + Table 8) | survival of KPC mice over vehicle only control or Ab7326 treatment ([3]; Example 5 cohort, in words) | Hazard ratio Vehicle/treatment ([3]; Table 9, Example 5 cohort, Cox model, >1 favours treatment) | Hazard ratio Ab7326/treatment ([3]; Table 9, Example 5 cohort, Cox model)
Cn1cnc2c(F)c(Nc3ccc(Br)cc3Cl)c(C(=O)NOCCO)cc21 [Selumetinib, 6-(4-bromo-2-chloroanilino)-7-fluoro-N-(2-hydroxyethoxy)-3-methylbenzimidazole-5-carboxamide] | 17 days | 17 | 9 Days and 13 Days and 15 Days and 17 Days (2×) and 20 Days and 32 Days and 33 Days | mean tumour volume is reduced | 22 days | 1.77 | 1.31 | – | – | –
NCC1CN(C(=O)c2c(Nc3ccc(I)cc3F)sc3ncccc23)C1 [UCB-554, [3-(Aminomethyl)azetidin-1-yl]-{2-[(2-fluoro-4-iodophenyl)amino]thieno[2,3-b]pyridin-3-yl}-methanone] | – | – | – | tumour volume is reduced | 21 days | – | – | moderate increase in survival | 2.04 | 2.50
